Test results as given in patent US10807951B2, “mTORC1 modulators” (THE REGENTS OF THE UNIVERSITY OF CALIFORNIA, priority 2017, dated 2020).
Entries after “also recorded” stand apart in the source; their conditions may differ.

Assays:
mTORC2 = test: p-AKT signaling in Hela cells by immunoblotting; format: cell-based; conditions: up to 50 μM
autophagy = test: Immunoblotting for autophagic markers LC3b and p62 in HEK-293A cells; format: cell-based
Description: FIGS. 6A-6D. CC 1-44 inhibits mTORC1 signaling and activates autophagy. (FIG. 6A) Visual IP experiment monitoring binding of GFP-RagB to RFP-tagged, bead-bound Lamtor complex. […] (FIG. 6B) Immunofluorescence for endogenous RagA and LAMP2 in HEK-293A cells treated with DMSO, YP 1-44 or CC 1-44 for 2 h. […] (FIG. 6C) Immunofluorescence for endogenous mTOR and LAMP2 in HEK-293A cells treated with DMSO or CC 1-44 for 2 h. […] (FIG. 6D) Immunoblotting for autophagic markers LC3b and p62 from HEK-293A cells treated with DMSO (lane 1) or CC 1-44 (lane 3) for 2 h.
In cells treated with CC 1-44, autophagy becomes activated within 1 h, as judged by accumulation of cleaved LC3b and increased degradation of p62 (FIG. 6D).

[1] = target: T1, Lamtor (a.k.a. Ragulator) and Rag GTPase protein complexes (Homo sapiens, UniProt O43504); test: Visual-IP of Rag GTPase binding to bead-bound Lamtor (Ragulator); conditions: for disruption of Rag GTPase-Lamtor interaction (Visual IP): in vitro, GFP-RagB on RFP-Ragulator beads, 50 μM compound in small-scale screens
T1 construct: RFP (on the Ragulator complex); GST (large-scale screen); on the Ragulator complex; made in house; host or cells: HEK293T (small-scale screen), HEK293F (large-scale screen), transient transfection
Description: To assay for mTORC1-inhibiting compounds, we in vitro-reconstituted the interaction between the Lamtor (a.k.a. Ragulator) and Rag GTPase protein complexes, which are essential for amino acid-driven mTORC1 recruitment (and thus activation) to the lysosome (24, 30, 36, 37). We sequentially coated agarose beads with RFP-tagged Ragulator and with GFP-tagged Rag GTPases, resulting in Rag binding to the beads via their interaction with Lamtor. This method, which we call ‘Visual co-immunoprecipitation’ (Visual-IP) is essentially a binding reaction at equilibrium, in which the interaction between the two binding partners can be easily scored as color overlap between the bead-bound, red-tagged Lamtor and the soluble, green-fluorescent Rag GTPases. Interaction between the two proteins results in red-green color overlap (‘yellow beads’), whereas when the interaction is disrupted, partial or complete dispersion of the green signal in the surrounding buffer is observed (‘red beads’) (FIG. 1A and FIG. 1B). This assay could easily be scaled up and implemented in 384-well plates, which were imaged with the aid of an automated fluorescence microscope (FIG. 1C).
HEK293T cells were plated on 15 cm plates at 10 million cells per plate. 24 hours later, the cells were transfected using 500 μL OptiMEM transfection media, 60 μL polyethyleneimine (PEI, Sigma) and 10 μg total DNA. The transfection mix was incubated for 15 minutes and then added directly to the cell media. 48 hours later, the media was removed, and the cells were washed three times with PBS. The cells were scraped from the plate and collected in 10 mL PBS. The samples were centrifuged for 5 minutes at 1500 g at 4° C. The cell pellets were then resuspended in 1 mL Triton lysis buffer (1% Triton X-100, 130 mM NaCl, 2 mM EGTA, 2.5 mM MgCl2, 25 mM HEPES, pH 7.4, 10% glycerol, protease inhibitor (Pierce)), and allowed to rotate at 4° C. for 20 minutes. The samples were then centrifuged at 13000 g for 2 minutes, and the supernatant was separated for immunoprecipitation. 50 μL of washed anti-FLAG affinity beads (Sigma) were added to the supernatant and the sample was rotated at 4° C. for 2 hours. After immunoprecipitation, the samples were washed twice in Triton lysis buffer, once in high salt (500 mM NaCl) lyso sucrose buffer, and once in normal salt lyso sucrose buffer (250 mM sucrose, 10 mM KCl, 2 mM EGTA, 2.5 mM MgCl2, 25 mM HEPES, pH 7.4, 10% glycerol, protease inhibitor (Pierce)). Each wash consisted of rotating with the wash buffer for 5 minutes at 4° C. and subsequent centrifugation at 2000 g for 1 minute. For elution off FLAG beads, 3×-FLAG peptide in Phosphate Buffered Saline (PBS) was added to the sample, [RL2] and the sample was allowed to rotate overnight at 4° C. […]

RagC and RagA = test: Rag GTPase lysosomal localization, immunofluorescence in HeLa cells; format: cell-based; conditions: 50 μM, 1 h
Description: Next, we sought to determine whether YP 1-44 had expected cellular effects in disrupting the TORC1 complex, recruitment of TORC1 to the lysosome, and TORC1 signaling. We treated Hela cells with YP 1-44 for 1 h with and without amino acid stimulation. […] This finding is consistent with the role of Lamtor as an obligate scaffold not only for mTORC1 but also for the Rag GTPases at the lysosome. […] Thus, our results establish that YP 1-44 abolishes mTORC1 signaling both in vitro and in live cells by preventing mTORC1 localization to the lysosome, and that this action occurs via disruption of the Lamtor-Rag scaffold.
HeLa cells were plated on fibronectin-coated glass coverslips in 6-well plates (35 mm diameter/well), at 300,000-500,000 cells/well. 12-16 hours later, cells were subjected to amino acid depletion for 1 h in the presence of 50 uM compounds or an equivalent volume of DMSO, restimulated with a complete amino acid mix for 10 minutes, and fixed in 4% paraformaldehyde (in PBS) for 15 min at RT. The coverslips were rinsed twice with PBS and cells were permeabilized with 0.1% (w/v) Saponin in PBS for 10 min. After rinsing twice with PBS, the slides were incubated with primary antibody in 5% normal donkey serum for 1 hr at room temperature, rinsed four times with PBS, and incubated with fluorophore-conjugated secondary antibodies produced in goat or donkey (Life Technologies, diluted 1:1000 in 5% normal donkey serum) for 45 min at room temperature in the dark, washed four times with PBS. Coverslips were mounted on glass slides using Vectashield (Vector Laboratories) and imaged on a spinning disk confocal system (Andor Revolution on a Nikon Eclipse Ti microscope).

Structure (SMILES)	effect on canonical mTORC2 substrate pAKT (mTORC2)	autophagy (LC3b band increase, p62 band disappearance) (autophagy; HEK-293A cells, 2 h)	total autophagic flux (autophagy; HEK-293A cells, 2 h, with Bafilomycin A)	time to autophagy activation (accumulation of cleaved LC3b, increased degradation of p62) (autophagy; treated cells)	disruption of Rag GTPase-Lamtor interaction (Visual IP) [1]	RagA localization to LAMP2-positive lysosomes (RagC and RagA)	RagC localization to LAMP2-positive lysosomes (RagC and RagA)	RagA localization to LAMP2-positive lysosomes (RagC and RagA; listed as YP1-44)	RagC localization to LAMP2-positive lysosomes (RagC and RagA; listed as YP1-44)	displacement of Rag and Lamtor interactions ([1]; 10 μM, dose-responsive)	disruption of Rag GTPase-Lamtor interaction (Visual IP) ([1]; listed as YP1-44)
C=CC(=O)N1CCc2c(OCc3cc(C(F)(F)F)cc(C(F)(F)F)c3)cccc21 [CC 1-44]	did not affect	activation of autophagy	increased	≤ 1 h	does not; also recorded: did not break the LAMTOR-Rag interaction in vitro	–	–	–	–	–	–
C=CC(=O)n1ccc2ccccc21 [YP 1-44]	–	–	–	–	causes RagB dissociation from Lamtor; also recorded: disrupted the interaction	no longer localized to the lysosome	no longer localized to the lysosome	causes dispersion of RagA from LAMP2-positive lysosomes	causes dispersion of RagC from LAMP2-positive lysosomes	~50%	dispersion of the GFP-RagB signal
